# Laboratory results reported in patent publication US20230097801A1, “METHODS OF INCREASING CELL PHAGOCYTOSIS” (National Health Research Institutes, priority 2021, published 2023).
# Assays:
# [1] = system: human B-cell lymphoma Raji xenograft tumor; assay: Raji xenograft anti-tumor efficacy and survival study (3 weeks treatment); format: in vivo, NOD/SCID mice; conditions: Compound 34 100 mg/kg p.o. QD*5, rituximab 10 mg/kg i.p. 2QW
# Text: (§1) Human B-cell lymphoma Raji cells were used to evaluate the efficacy of Compound 34 and rituximab in treating cancer cells. Prior to injection into animals, the cancer cells were detected as free of Mycoplasma spp. NOD/SCID mice (BioLasco, Taiwan) were used for in vivo experiments due to their higher affinity of SIRPα to human CD47. The mice used in these studies were housed in Institutional Animal Care and Use Committees-approved facility at National Health Research Institutes in accordance with guidelines for the care and use of laboratory animals.
# One million Raji cells in culture medium and matrigel (1:1, v/v) were injected subcutaneously into the left flank region of the mice (n=7 to 10 animals per group). Treatments were initiated after randomization with inclusion of tumors at approximately 100 mm^3. A dosing vehicle for Compound 34 was prepared using 10% DMA: 40% PEG400: 50% (1% CMC) (v/v/v) and was dosed orally (p.o.) at 100 mg/kg once a day, 5 days a week (Q.D.*5). Rituximab (Roche-Genentech, South San Francisco, Calif.) stock solution was diluted with PBS and dosed at 10 mg/kg twice a week (2QW) by intraperitoneal (i.p.) injection.
# To evaluate anti-tumor efficacy and survival rates, mice were treated with vehicle control, 10 mg/kg rituximab (2QW, i.p.), 100 mg/kg Compound 34 (QD*5), or rituximab in combination with Compound 34. Treatment was discontinued at the end of 3 weeks. The mice were monitored for cancer growth and body weight once a week. Cancer growth was measured by volume with an electronic caliper. The volume was calculated as L×W^2/2, in which L is the length of the tumor and W is its width. Tumor size and animal body weight were measured once a week after cancer cell inoculation. Cancer response at the end of the study was calculated as tumor growth inhibition (TGI) using (1−T/C)*100, in which T is the mean tumor volume (mm^3) of the test group, and C is the mean tumor volume (mm^3) of the vehicle-treated group. […] For the survival study, treatment was discontinued at the end of 3 weeks. Thereafter, mice were followed up for tumor growth and body weight once a week. The mice were then sacrificed when tumor volume reached 2,000 mm^3 or body weight loss was greater than 10%. Kaplan-Meier plots were used as the study end point to calculate percentage of animals remaining in the study in term of the time. The median survival days for vehicle control and Compound 34 were 15.5 days and 18 days, respectively (FIG. 5E). Rituximab prolonged median survival days to 28 days after treatment discontinued (FIGS. 5C and 5E). Importantly, the combination of rituximab and Compound 34 further prolonged median survival days to 47 days (FIGS. 5D and 5E).
# [2] = system: human B-cell lymphoma Raji xenograft tumor; assay: Raji xenograft dose-dependent efficacy of Compound 34 with rituximab (6 weeks); format: in vivo, NOD/SCID mice; conditions: rituximab 10 mg/kg alone
# Text: as §1
# To evaluate dose-dependent anti-tumor efficacy of Compound 34 in combination with rituximab, mice were treated with vehicle control, rituximab, or rituximab in combination with Compound 34 for 6 weeks. A dosing vehicle for Compound 34 was prepared using 10% DMA: 40% PEG400: 50% (1% CMC) (v/v/v) and was dosed orally (p.o.) at 10 mg/kg, 30 mg/kg, and 100 mg/kg once a day, 5 days a week (Q.D.*5). Rituximab (Roche-Genentech, South San Francisco, Calif.) stock solution was diluted with PBS and dosed at 10 mg/kg twice a week (2QW) by intraperitoneal (i.p.) injection. Cancer growth was measured by volume with an electronic caliper. The volume was calculated as L×W^2/2, in which L is the length of the tumor and W is its width. Tumor size and animal body weight were measured once a week after cancer cell inoculation. Cancer response at the end of the study was calculated as tumor growth inhibition (TGI) using (1−T/C)*100, in which T is the mean tumor volume (mm^3) of the test group, and C is the mean tumor volume (mm^3) of the vehicle-treated group. The treatment response rate were classified into 4 categories: complete regression (CR), in which the tumor was undetectable at the end of study; partial regression (PR), in which the tumor volume was less than or equal to 30% of the initial tumor volume at the end of study; stable disease (SD), in which the tumor volume was between […] of the initial tumor volume at the end of study; progression disease (PD), in which the tumor volume was greater than 50% of the initial tumor volume at the end of study. An overall response rate (ORR) is calculated based on the CR and PR groups. […] When treated with Compound 34 (at 100 mg/kg) in combination with rituximab, 6 out of 10 mice (60%) fell under the CR group, and 1 out of 10 mice (10%) fell under the PR group. On the other hand, no animals had CR (0%) and only 2 out of 10 mice (20%) were PR by rituximab (at 10 mg/kg), resulting in 70% ORR by the combination treatment and 20% by antibody only.
# CD47 [3] = assay: Flow cytometry, anti-human CD47 CC2C6 antibody binding on Raji cell surface; format: cell-based; conditions: for IC50: B-cell Lymphoma (Raji cells), 4 days treatment, read-out: IC50, inhibition of CC2C6 binding; for inhibition of binding of anti-human CD47 antibody CC2C6 (in words): Raji cells
# Description: (§2) Binding between CD47 and SIRPα was studied by measuring the level of CD47 binding using any suitable method. Flow cytometric analysis is useful to quantify the level of binding of CD47 to antibody CC2C6, which is then subjected to an immune-staining procedure using fluorochrome-conjugated secondary antibody followed by analysis of the immune-staining signal with a flow cytometry instrument to obtain the level of the CD47-CC2C6 binding. In another method, analysis of CD47 is performed using SIRPα-Fc formed from SIRPα fused with human IgG1, which is then subjected to an immune-staining procedure using fluorochrome-conjugated secondary antibody against human IgG1, followed by analysis of the immune-staining signal. SIRPα is expressed on the surface of a myeloid cell such as macrophage, monocyte, neutrophil, or dendritic cell. Alternatively, SIRPα is fused with human IgG1 to form a SIRPα-Fc recombinant protein. […] An anti-cancer agent (e.g., rituximab) can be used together with a compound of formula (I). Useful anti-cancer agents are described above including anti-PD-L1 antibodies, anti-CD20 antibodies, anti-HER2 antibodies, anti-EGFR antibodies, and anti-CD47 antibodies. Other suitable anti-cancer agents are chemotherapeutic agents such as doxorubicin, epirubicin, idarubicin, methotrexate, mitoxantrone, oxaliplatin, and cyclophosphamide.
# Human B-cell lymphoma Raji cells were purchased from BCRC, Taiwan. Raji cells were maintained at 37° C. under 5% CO2 in RPMI-1640 medium (Hyclone, Marlborough, Mass.) supplemented with 10% fetal bovine serum (FBS) (SAFC, Sigma-Aldrich, St. Louis, Mo.) containing 2 mM L-glutamine (Hyclone, Marlborough, Mass.), 10 mM HEPES (Hyclone, Marlborough, Mass.) and 1 mM sodium pyruvate (Hyclone, Marlborough, Mass.).
# (§3) Antibody conjugates and extracellular domain of SIRPα used to analyze cell surface CD47 binding include anti-human CD47 CC2C6, 2D3, recombinant human SIRPα/CD172a Fc chimer protein, and anti-human IgG Fc. To determine inhibition of CD47 binding, cancer cells were treated with compounds of formula (I) at various concentrations for 4 days. Thereafter, the cells were washed with PBS containing 0.5% BSA (FACS buffer) followed by incubation with fluorochrome-labeled antibodies to human CD47 (i.e., CC2C6 and 2D3) at 1:50 dilution in FACS buffer for 30 minutes at 4° C. Compounds of formula (I) produced a dose-dependent inhibition of anti-CD47 CC2C6 antibody that recognized CD47 and SIRPα binding site on the tumor cell surface including B-cell lymphoma Raji cells, colon cancer cells DLD-1, and ovarian cancer SK-OV-3 cells (see FIGS. 1A, 1B, and 1C, respectively).
# Mouse pk profiles = format: in vivo; conditions: for clearance / Cmax / bioavailability / half-life: plasma; for bioavailability: PO (30 mg/kg) vs IV (2 mg/kg); for half-life: read-out: T1/2 (h) Plasma (converted)
# CD47 [4] = assay: Flow cytometry, anti-human CD47 CC2C6 antibody binding on SK-OV-3 cell surface; format: cell-based; conditions: for IC50: Ovarian Cancer (SK-OV3 cells), 4 days treatment, read-out: IC50, inhibition of CC2C6 binding; for inhibition of binding of anti-human CD47 antibody CC2C6 (in words): SK-OV-3 cells
# Description: as §2
# SK-OV-3 cells were purchased from ATCC (Manassas, Va.). SK-OV-3 cells were maintained at 37° C. under 5% CO2 in McCoy's 5a medium (Gibco, ThermoFisher, Waltham, Mass.) with 10% fetal bovine serum (FBS) (Sigma-Aldrich, St Louis, Mo.), and 2 mM L-glutamine.
# as §3
# CD47 [5] = assay: Flow cytometry, anti-human CD47 CC2C6 antibody binding on DLD-1 cell surface; format: cell-based; conditions: for IC50: Colon Cancer (DLD-1 cells), 4 days treatment, read-out: IC50, inhibition of CC2C6 binding; for inhibition of binding of anti-human CD47 antibody CC2C6 (in words): DLD-1 cells
# Description: as §2
# Human colon cancer DLD-1 cells were obtained from NHRI IBPR HTS Lab, Taiwan. DLD-1 cells were maintained under the same conditions described immediately above.
# as §3
# CD47 [6] = assay: Flow cytometry, anti-human CD47 2D3 control antibody binding on Raji cell surface; format: cell-based; conditions: Raji cells
# Description: as §3
Molecule,IC50 (CD47 [3]) [nM],inhibition of binding of anti-human CD47 antibody CC2C6 (in words) (CD47 [3]),AUC Plasma (Mouse pk profiles; IV (2 mg/kg)) [ng·h/g],AUC Plasma (Mouse pk profiles; PO (30 mg/kg)) [ng·h/g],clearance (Mouse pk profiles; IV (2 mg/kg)) [mL/min/kg],Cmax (Mouse pk profiles; PO (30 mg/kg)) [ng/mL],bioavailability (Mouse pk profiles) [%],half-life (Mouse pk profiles; PO (30 mg/kg)) [h],IC50 (CD47 [4]) [nM],inhibition of binding of anti-human CD47 antibody CC2C6 (in words) (CD47 [4]),IC50 (CD47 [5]) [nM],inhibition of binding of anti-human CD47 antibody CC2C6 (in words) (CD47 [5]),inhibition of binding of anti-human CD47 antibody 2D3 (in words) (CD47 [6]),also measured
Rituximab: an anti-human CD20 antibody (Roche-Genentech),,,,,,,,,,,,,,"tumor growth inhibition (TGI, % of control) ([1]; 3 weeks): 78.5%; median survival days ([1]; treatment discontinued at 3 weeks): 28 days; CR (complete regression), rate [2]: 0 (0%); ORR (overall response rate, CR and PR), rate [2]: 20%; PD (progression disease), rate [2]: 80%; PR (partial regression), rate [2]: 20%; CR (complete regression), number of mice ([2]; of 10 mice): 0 (0%); ORR (overall response rate, CR and PR), number of mice ([2]; of 10 mice): 2; PD (progression disease), number of mice ([2]; of 10 mice): 8; PR (partial regression), number of mice ([2]; of 10 mice): 2; CR (complete regression), rate ([2]; listed as rituximab): 0%"
O=C1NC[C@H](c2ccc(-c3csc(C(F)(F)F)c3)cc2)N1c1ccc2[nH]cnc2c1 [Compound 32],1380,effectively inhibited,8185,68659,4,3720,56,12.7,200,effectively inhibited,790,effectively inhibited,did not inhibit,
"CCCOc1ccc([C@H]2CNC(=O)N2c2ccc3[nH]cnc3c2)cc1 [PQ912, reference compound]",5950,,520,6359,64,2020,82,2.8,150,,3190,,,
O=C1NC[C@H](c2ccc(-c3cnc(C(F)(F)F)s3)cc2)N1c1ccc2[nH]cnc2c1 [Compound 30],840,effectively inhibited,3037,21170,12.7,1780,47,5.2,,effectively inhibited,1010,effectively inhibited,did not inhibit,
